In data set [1] the test system is mice. Also noted: method as in earlier work. As to conditions: 10 mg/kg, not run in parallel; cited from earlier work.
Data set [2] has as its system mice. The data set is described as follows: Depression-related behavior, sucrose preference test, repeated treatment. The format is in vivo. From the text:
(§1) Anxiety-like behaviors were studied in the elevated plus maze (EPM), a rodent model used to evaluate the putative anxiogenic or anxiolytic effects of pharmacological compounds. Depression-related behaviors were studied using the sucrose preference test as a model of anhedonia, one of the cardinal symptoms of depression.
The sucrose preference test was done in the home cage. Two identical bottles, one containing water and the other containing a 2% sucrose solution, were placed in the hopper of each cage. The mice had unlimited access to water and sucrose solutions during the active phase—the dark phase of the light/dark cycle that started at 20:00. The volume of water and of sucrose solution consumed was measured over two […] intervals, the first between 19:00 and 20:30 and the second between 20:30 and 22:00. At each timepoint, the bottles were weighed, and the intake volume was calculated by subtracting the […].
(§2) The EPM assessment was done on day 26, and the sucrose preference test was done on day 28.

The test system of data set [3] is mice. The data set is described as follows: Precipitated withdrawal in THC-dependent mice. Format: in vivo. On the procedure:
From day 1 to days 4–5, mice were injected i.p. with vehicle or THC (20 mg kg^−1) twice per day. On the last day of treatment, mice in the THC group received rimonabant or AEF0117. All other animals received the respective vehicle. […] For the measure of precipitated withdrawal, mice were placed in a novel home cage, and a video camera was positioned in front of each cage to record behavior. Scoring was performed for 1 min every 5-min period. Two withdrawal signs were analyzed—paw tremors and head shaking—because they are the most common signs of THC withdrawal observed in mice[14].

Data set [4] concerns mice. In words: Glucocorticoid (corticosterone) secretion in mice. As to conditions: glucocorticoid, 10 mg/kg the known ID100. The format is in vivo. On the procedure: Blood sampling was performed 2, 5, 8 and 24 h after dosing (n = 3 per sex per dose per sampling time). For blood sampling, mice were anaesthetized under isoflurane, and blood was collected by cardiac puncture. Blood was centrifuged, and plasma was taken and frozen at −80 °C until quantifications of corticosterone by GC–MS/MS.

The subject of another data set is DIO mice. The data set is described as follows: Food intake and body weight in diet-induced obese mice, repeated treatment. Format: in vivo. As to the method: Body weight and food intake were studied because they are reduced by repeated treatment with rimonabant both in mice[31] and in humans. DIO mice were used because the effects of CB1 antagonists are of greater amplitude in obese mice than in lean mice. Male C57BL/6J mice (8 weeks old) were fed ad libitum with a high-fat diet (HFD) for 8 weeks before the start of the pharmacological treatments. During pharmacological treatments, the HFD was maintained, and food intake and body weight were measured daily. The food consumed was calculated by subtracting the food left in the hoppers from the initial pre-weighed amount.

The test system of data set [5] is mice. In words: Anxiety-related behavior, elevated plus maze, repeated treatment. The format is in vivo.
Source text: as §1
The EPM apparatus comprises four elevated arms arranged in a cross-like shape, with the two opposite arms enclosed by walls and the other two arms open. For all experiments, mice were placed in the center of the EPM and were free to explore the maze for 5 min after receiving the treatment. The time spent and the number of entries into the open and closed arms were measured by an automatic video tracking system (EthoVision XT version 12, Noldus Information Technology). A decrease in the percentage of visits and/or the time spent in open arms is considered an index of increased anxiety.
as §2

As for `Cc1c(C(=O)NN2CCCCC2)nn(-c2ccc(Cl)cc2Cl)c1-c1ccc(Cl)cc1` [rimonabant, Rimonabant], in the data set with mice [1], the “Overall effect: increase in glucocorticoid secretion” value was “Yes”. The “N fold ID100 at highest dose tested” value in the data set on mice [2] (depression, 10 mg/kg the known ID100) was found to be 1; in the data set with mice [3] (withdrawal, 10 mg/kg the known ID100) it was 1; in the data set on mice [4], 1; with DIO mice (food-intake, 10 mg/kg the known ID100), 1; with mice [5] (anxiety, 10 mg/kg the known ID100), 1. Besides, the “Overall effect: increase in depression-related behaviors” value in the data set on mice [2] (mice, sucrose preference test, highest dose tested 10 mg/kg, run in parallel) is “Yes”. Further, the “Overall effect: precipitated withdrawal in THC-dependent mice” value with mice [3] (highest dose tested 10 mg/kg, run in parallel) was “Yes”. In the data set with DIO mice (10 mg/kg), the “body weight in DIO mice vs vehicle” value is listed as “decreased”. Also, the “Overall effect: inhibition of spontaneous food-intake” value with DIO mice (mice, highest dose tested 10 mg/kg, run in parallel) is given as “Yes”. The “Overall effect: increase in anxiety-related behaviors” value in the data set with mice [5] (mice, elevated plus maze, highest dose tested 10 mg/kg, run in parallel) was “Yes”.

The values above are taken from PMC10287566, “Signaling-specific inhibition of the CB1 receptor for cannabis use disorder: phase 1 and phase 2a randomized trials” (Nature Medicine, 2023).
